Results on 3 molecules are retold here after US8048918B2, “Treatment of hyperproliferative diseases” (Vampex Limited, priority 2000, dated 2011).

“Also recorded” adds a separate entry of the source. Where no end group is shown, it is not given here.

Assay [1] has as its system hyperproliferative psoriatic keratinocytes. The assay can be described thus: proliferation assay (Coulter cell counter) on hyperproliferative psoriatic keratinocytes. In kind it is cell-based, human. The source says:
Biopsy samples are obtained from psoriatic patients. Skin from patients with chronic plaque psoriasis are obtained with informed consent. Ethical approval has been obtained previously from The South Sheffield Regional Ethics Committee. Biopsies are all be taken from the lower back in psoriasis patients aged 40 to 60.
Remove subcutaneous tissue and some of the dermis with scissors, dissect skin into 1×2 cm pieces with a scalpel. Rinse the tissue 2-5 times in PBSA. Float skin samples on 0.6% Trypsin in PBSA (pH 7.4) ON at 4° C. (or alternatively for 20-30 min at 37° C.)
The separation of the epidermis is carefully monitored. When the first detachment of the epidermis is visible at the cut edges of the skin sample place the pieces (dermis-side down) in 100 mm Petri dishes. Irrigate with 5 ml of complete culture medium (incl. serum). Peel off the epidermis with forceps and collect it in a 50 ml centrifuge tube containing 20 ml of complete culture medium (KGM). Separate the keratinocytes from the epidermal cells by gently pipetting and sieving through a nylon gauze of 100 μm mesh. Wash the isolated epidermal cells twice in KGM by centrifugation at 100 g for 10 min, and count the total number of cells.
Cells are seeded at 37° C. in KGM medium at a density of 2500 cells/cm^2 in a 25 cm^2 cell culture flask. The medium is replaced every 48 hours and cells are passaged when confluent.
Cell Seeding and Analysis: Purchased secondary cultures or primary cultures (from donor skin) are seeded at 3500 cells/cm^2 in K-SFM 25 cm^2 tissue culture flasks. The medium is changed (5 ml per flask) the day after seeding and every other day thereafter. At 70-80% confluence the cells are subcultured by seeding 3500 cells per well in 24 well cell culture plates, each well containing 500 μl of K-SFM. One well plate is seeded for each treatment. After allowing one day for settling the cells are switched to experimental medium (500 μl per well). Stock solutions of additions are as before. Experimental treatments are as follows:
The medium is replaced every other day. Cells are harvested by trypsinisation. 500 μl Trypsin/EDTA is added to each well to be harvested and then aspirated off. The well plates are incubated for 5-6 min at 37° C. 500 μl PBS is added to the wells and the cells are resuspended. The cell suspension is added to 20 ml Isoton solution in a Coulter counter “Accuvette” and the cells are counted. On each harvest, 3 wells of cells are counted for each treatment and 3 counts were made for each well.
Cell number is calculated as follows: Coulter Counter removes 500 μl of 20 ml sample ( 1/40). Multiply cell count by 40 to obtain cell number in cup, this equals the total number of cells in one well (approximately, as ˜10% taken out for viability test). […]

A further assay relates to retinoic acid synthesis. In words: RA synthesis in normal human epidermal keratinocytes. The format is cell-based. As to conditions: Carbenoxolone 6 μM, Disulfiram 15 μM or Citral 10 μM. As to the method:
Protocols used are as described in as in Båvik et al., Experimental Cell research 1995:216, p. 358-362. Briefly, subcultures are grown to confluence in KGM. On day of confluence change to keratinocyte differentiation media (1.2 mM Ca^2+, KDM) with 2 μM holo-RBP+/−inhibitors ([…]; […]; 10 μM Citral; 0.2 mM 4-Methylpyrazole; 15 μM Disulfiram; 10 μM Citral; 2 mM 3-Mercaptopropionic acid; or drug vehicle alone). Cells are grown for 4 days, and cells are media are harvested.
The concentration of RA in cells and media is analysed directly by HPLC. Essentially as in “Characterisation of retinol metabolism in cultured human epidermal keratinocytes”, Randolph R. K. and Simon M., J. Biol. Chem. 268:9198-9205, 1993. The concentration of RA in cells is also analysed indirectly by Northern blot analysis of CRABPII mRNA expression in the keratinocytes, essentially as described in Elder et al. Retinoid Induction of CRABPII nRNA in Human Dermal Fibroblasts: Use as a Retinoid Bioassay, J. Investigative Dermatology 106:517-521, 1996.
The above two experiments are repeated, but with the use of normal human epithelial keratinocytes instead of psoriatic human epidermal keratinocytes.

As to `CC1(C)[C@@H](OC(=O)CCC(=O)O)CC[C@]2(C)[C@H]3C(=O)C=C4[C@@H]5C[C@@](C)(C(=O)O)CC[C@]5(C)CC[C@@]4(C)[C@]3(C)CC[C@@H]12` [Carbenoxolone], the “effect on retinol/retinoic acid-induced keratinocyte proliferation (cell numbers)” value in assay [1] (RA synthesis inhibitors (Disulfiram 15 μM, Citral 10 μM, Carbenoxolone 12 μM), 1.2 mM Ca2+, 2 μM ROL, FIG. 10) is given as “particularly marked effect”. Also, the retinoic acid synthesis result with retinoic acid synthesis was “inhibited”.
Consider `CC(C)=CCCC(C)=CC=O` [Citral, 3,7-dimethyl-2,6-octadienal], for which, in the assay on retinoic acid synthesis, the retinoic acid synthesis entry is listed as “inhibited”.
In the case of GRVRLLNNWDVCA, the “effect on RBP-increased proliferation” value in assay [1] (peptides 6 μM, Ca2+ 1.2 mM, RBP 0.6 μM) is on record as “reversed; also recorded: reduces proliferation”.
